According to ChEMBL document CHEMBL1201862, “PubChem BioAssay data set” (2004):
Activity calls are given as the source filed them.

Experiments:
[1] = cytotoxicity in HeLa cells, dose response, cytotoxicity control, cell-based, plate reader, dry powder (AID 651946); type: functional
[2] = target: Botulinum neurotoxin type F (Clostridium botulinum, UniProt P30996); assay: High-throughput multiplex microsphere dose response for inhibitors of toxin protease, specifically Botulinum neurotoxin light chain F protease, compounds from Cherry Pick 02.; type: functional; conditions: read-out: EC50_MICROM
[3] = inhibitors of clade B AD8 Env fusion, dose response, cell-based, cherry-pick (AID 652062); type: functional;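 also: luciferase signal from cell-cell fusion driven by HIV-1 clade B AD8 Env; potency is for inhibitors of fusion seen as a drop in luminescence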
[4] = target: SUMO-activating enzyme (Homo sapiens, UniProt Q9UBT2); assay: SUMOylation inhibitor hit validation, confirmation, SUMOylation inhibitor project, biochemical, AlphaScreen (AID 2018); type: functional
[5] = off-target signal loss in HeLa-CEM21 co-culture – HeLa F-luc CTL cells, cherry-picked, counter-screen for HIV-1 Env fusion inhibitor project, dose response (AID 652040); type: functional, cell-based;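 also: potency for signal decrease marking cytotoxic or nonspecific inhibition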
[6] = inhibitors of HIV Env-driven cell fusion, dose response, cherry-pick (AID 652057); type: functional, cell-based
[7] = CEM21 lymphoblast cell cytotoxicity, dose response, cytotoxicity control for viral fusion inhibitor project, CellTiter-Glo luminescence, cherry-picked (AID 652042); type: functional, cell-based;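 also: potency for signal decrease meaning cytotoxicity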
[8] = ZM109 Env clade C HIV-1 fusion inhibitors, dose response, HeLa effector, CEM target cells, luciferase, cherry-pick (AID 652058); type: functional, cell-based
[9] = target: Fructose-bisphosphate aldolase (Mycobacterium tuberculosis, UniProt P9WQA3); assay: Fluorescence-based biochemical high throughput dose response assay for inhibitors of the fructose-bisphosphate aldolase (FBA) of M. tuberculosis.; type: functional
[10] = target: Genome polyprotein (dengue virus type 2, UniProt P29990); assay: Dengue-2 NS5 methyltransferase inhibitors, primary screen, biochemical, confirmation dose response (AID 588689); type: functional
[11] = target: Arf-GAP with SH3 domain, ANK repeat and PH domain-containing protein 1 (Homo sapiens, UniProt Q9ULH1); type: functional;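 also: biochemical fluorescence polarization dose–response screen measuring inhibition of ASAP1; ASAP1 GAP domain stimulating GTP hydrolysis by truncated human ARF1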
[12] = system: A549; assay: A549 cell toxicity, dose response, cytotoxicity control, plate reader, cherry-pick samples (AID 687028); type: functional, cell-based; conditions: Homo sapiens
[13] = Late stage assay provider results from the probe development effort to identify inhibitors of the Plasmodium falciparum M17 Leucine Aminopeptidase (M17LAP): radiolabel-based cell-based dose response assay to identify compounds that inhibit P. falciparum growth in RBCs Set 2.; type: functional
[14] = target: Protein Wnt-3a (Mus musculus, UniProt P27467); assay: SAR analysis of small molecule antagonists of Gli-SUFU in a Wnt3a luminescent reporter assay.; type: functional
[15] = EDANS-DABCYL fluorescence interference, concentration series, dose response, artefact control for kallikrein-7 zymogen activator project, biochemical, fluorescence intensity, triplicate (AID 720493)
[16] = target: Kallikrein-7 (Homo sapiens, UniProt P49862); assay: Fluorescence Intensity-based biochemical primary high throughput dose response assay to identify activators of kallikrein-7 (K7) zymogen.
Sequence of Kallikrein-7 (P49862 whole entry): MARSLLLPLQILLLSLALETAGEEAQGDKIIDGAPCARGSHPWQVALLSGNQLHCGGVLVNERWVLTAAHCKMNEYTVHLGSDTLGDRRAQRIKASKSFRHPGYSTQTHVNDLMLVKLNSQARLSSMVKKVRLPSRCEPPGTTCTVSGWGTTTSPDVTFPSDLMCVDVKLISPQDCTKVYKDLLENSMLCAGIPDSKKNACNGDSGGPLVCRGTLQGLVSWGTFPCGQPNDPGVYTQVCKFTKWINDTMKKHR

Sequence of Botulinum neurotoxin type F (P30996 1-436 limits assumed): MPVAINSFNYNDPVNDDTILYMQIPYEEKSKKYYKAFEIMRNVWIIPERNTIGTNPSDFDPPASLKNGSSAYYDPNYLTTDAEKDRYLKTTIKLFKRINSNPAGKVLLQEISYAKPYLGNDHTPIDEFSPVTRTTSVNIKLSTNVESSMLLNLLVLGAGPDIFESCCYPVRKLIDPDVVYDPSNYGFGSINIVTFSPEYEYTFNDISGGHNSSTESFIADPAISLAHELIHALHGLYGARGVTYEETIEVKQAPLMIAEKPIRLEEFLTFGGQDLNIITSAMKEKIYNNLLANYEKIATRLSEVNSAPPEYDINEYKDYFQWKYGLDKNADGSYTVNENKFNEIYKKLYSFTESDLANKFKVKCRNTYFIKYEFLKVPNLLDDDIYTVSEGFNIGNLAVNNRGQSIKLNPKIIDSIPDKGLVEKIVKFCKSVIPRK
Sequence of SUMO-activating enzyme (Q9UBE0 whole entry, the tested form may be a part): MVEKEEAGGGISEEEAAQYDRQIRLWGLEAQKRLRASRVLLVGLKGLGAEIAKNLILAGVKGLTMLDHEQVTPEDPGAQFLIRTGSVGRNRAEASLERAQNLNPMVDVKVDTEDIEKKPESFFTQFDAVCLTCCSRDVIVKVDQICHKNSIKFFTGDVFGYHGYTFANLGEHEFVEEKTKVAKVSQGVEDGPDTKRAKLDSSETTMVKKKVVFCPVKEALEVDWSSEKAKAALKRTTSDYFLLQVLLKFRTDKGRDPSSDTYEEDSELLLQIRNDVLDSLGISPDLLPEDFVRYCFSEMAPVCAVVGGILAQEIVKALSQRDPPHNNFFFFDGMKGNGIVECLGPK
Sequence of SUMO-activating enzyme (Q9UBT2 whole entry, the tested form may be a part): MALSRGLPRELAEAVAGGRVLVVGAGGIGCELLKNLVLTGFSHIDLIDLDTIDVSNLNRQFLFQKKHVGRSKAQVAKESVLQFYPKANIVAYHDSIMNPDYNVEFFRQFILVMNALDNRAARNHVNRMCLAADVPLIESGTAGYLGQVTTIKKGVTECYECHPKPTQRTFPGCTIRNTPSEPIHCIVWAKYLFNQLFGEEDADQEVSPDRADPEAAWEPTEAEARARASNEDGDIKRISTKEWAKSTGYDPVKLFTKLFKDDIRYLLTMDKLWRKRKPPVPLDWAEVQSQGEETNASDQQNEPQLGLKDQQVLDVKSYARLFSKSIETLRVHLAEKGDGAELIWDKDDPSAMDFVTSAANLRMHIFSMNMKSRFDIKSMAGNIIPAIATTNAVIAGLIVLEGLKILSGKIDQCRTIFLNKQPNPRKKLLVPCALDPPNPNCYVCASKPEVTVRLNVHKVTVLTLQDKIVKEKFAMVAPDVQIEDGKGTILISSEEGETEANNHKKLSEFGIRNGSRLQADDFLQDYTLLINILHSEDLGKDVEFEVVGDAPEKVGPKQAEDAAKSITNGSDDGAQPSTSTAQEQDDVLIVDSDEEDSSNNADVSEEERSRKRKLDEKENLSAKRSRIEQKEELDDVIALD
Sequence of Arf-GAP with SH3 domain, ANK repeat and PH domain-containing protein 1 (Q9ULH1 whole entry, the tested form may be a part): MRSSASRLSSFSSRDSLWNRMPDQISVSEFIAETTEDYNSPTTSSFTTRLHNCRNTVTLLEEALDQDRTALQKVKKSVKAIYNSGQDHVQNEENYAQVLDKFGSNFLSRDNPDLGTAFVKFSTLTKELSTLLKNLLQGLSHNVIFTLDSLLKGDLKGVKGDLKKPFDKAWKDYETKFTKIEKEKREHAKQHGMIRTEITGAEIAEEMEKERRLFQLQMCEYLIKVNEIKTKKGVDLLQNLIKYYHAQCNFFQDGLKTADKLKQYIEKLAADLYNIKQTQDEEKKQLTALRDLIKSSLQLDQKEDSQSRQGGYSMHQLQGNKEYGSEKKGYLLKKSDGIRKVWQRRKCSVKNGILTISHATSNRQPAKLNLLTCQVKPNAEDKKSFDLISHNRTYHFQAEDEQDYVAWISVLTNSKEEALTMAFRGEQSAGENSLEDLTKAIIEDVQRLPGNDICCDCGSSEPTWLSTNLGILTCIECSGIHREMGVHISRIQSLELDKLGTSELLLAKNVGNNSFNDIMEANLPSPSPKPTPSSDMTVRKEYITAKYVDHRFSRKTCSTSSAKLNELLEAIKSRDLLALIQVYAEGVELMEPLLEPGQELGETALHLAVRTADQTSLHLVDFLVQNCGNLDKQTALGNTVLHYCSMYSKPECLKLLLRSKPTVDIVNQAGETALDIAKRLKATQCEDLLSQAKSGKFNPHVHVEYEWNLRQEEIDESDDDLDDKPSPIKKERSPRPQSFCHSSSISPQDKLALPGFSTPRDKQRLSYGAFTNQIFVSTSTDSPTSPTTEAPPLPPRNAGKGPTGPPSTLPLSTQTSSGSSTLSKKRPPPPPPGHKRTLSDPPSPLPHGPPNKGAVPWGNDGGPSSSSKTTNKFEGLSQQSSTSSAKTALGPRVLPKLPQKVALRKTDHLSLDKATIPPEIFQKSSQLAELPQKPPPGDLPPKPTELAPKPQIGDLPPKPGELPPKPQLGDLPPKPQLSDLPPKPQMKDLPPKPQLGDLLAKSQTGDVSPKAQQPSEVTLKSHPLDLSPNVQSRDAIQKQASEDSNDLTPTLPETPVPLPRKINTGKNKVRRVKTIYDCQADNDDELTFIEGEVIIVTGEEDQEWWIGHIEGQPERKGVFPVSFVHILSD
Sequence of Fructose-bisphosphate aldolase (P9WQA3 whole entry): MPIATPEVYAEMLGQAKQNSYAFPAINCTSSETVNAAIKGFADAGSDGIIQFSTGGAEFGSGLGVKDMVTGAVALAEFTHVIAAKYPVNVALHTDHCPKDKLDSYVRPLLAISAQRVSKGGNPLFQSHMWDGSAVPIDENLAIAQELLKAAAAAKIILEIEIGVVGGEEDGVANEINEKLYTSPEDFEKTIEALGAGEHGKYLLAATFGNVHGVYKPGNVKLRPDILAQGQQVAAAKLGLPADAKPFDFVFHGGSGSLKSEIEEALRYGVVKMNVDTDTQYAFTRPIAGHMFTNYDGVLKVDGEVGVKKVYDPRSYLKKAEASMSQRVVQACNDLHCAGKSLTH
Sequence of Genome polyprotein (P29990 2492-3391 limits assumed): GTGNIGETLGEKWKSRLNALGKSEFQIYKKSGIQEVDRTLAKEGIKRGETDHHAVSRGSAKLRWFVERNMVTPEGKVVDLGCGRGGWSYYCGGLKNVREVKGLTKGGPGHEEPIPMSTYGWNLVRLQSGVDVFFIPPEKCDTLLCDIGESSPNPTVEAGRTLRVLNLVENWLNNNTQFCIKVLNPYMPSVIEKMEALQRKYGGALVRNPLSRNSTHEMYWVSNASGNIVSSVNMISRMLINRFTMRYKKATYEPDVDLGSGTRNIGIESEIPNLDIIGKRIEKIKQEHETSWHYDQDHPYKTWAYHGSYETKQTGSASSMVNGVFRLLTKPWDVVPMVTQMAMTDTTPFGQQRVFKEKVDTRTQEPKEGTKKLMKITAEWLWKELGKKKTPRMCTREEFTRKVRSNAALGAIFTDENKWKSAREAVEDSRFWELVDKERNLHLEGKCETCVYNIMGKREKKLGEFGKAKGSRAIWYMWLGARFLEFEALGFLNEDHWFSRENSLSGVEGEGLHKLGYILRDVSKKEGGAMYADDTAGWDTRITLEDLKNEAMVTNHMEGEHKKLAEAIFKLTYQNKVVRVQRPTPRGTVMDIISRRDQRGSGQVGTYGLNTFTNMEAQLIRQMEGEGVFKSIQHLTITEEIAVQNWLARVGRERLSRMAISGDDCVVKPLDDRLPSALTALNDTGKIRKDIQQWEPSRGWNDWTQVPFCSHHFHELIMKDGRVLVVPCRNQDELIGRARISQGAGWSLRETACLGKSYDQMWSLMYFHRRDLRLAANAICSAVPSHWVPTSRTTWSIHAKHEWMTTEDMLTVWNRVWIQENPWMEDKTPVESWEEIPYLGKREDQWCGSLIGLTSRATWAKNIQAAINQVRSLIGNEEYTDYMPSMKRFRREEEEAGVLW
Sequence of Protein Wnt-3a (P27467 whole entry): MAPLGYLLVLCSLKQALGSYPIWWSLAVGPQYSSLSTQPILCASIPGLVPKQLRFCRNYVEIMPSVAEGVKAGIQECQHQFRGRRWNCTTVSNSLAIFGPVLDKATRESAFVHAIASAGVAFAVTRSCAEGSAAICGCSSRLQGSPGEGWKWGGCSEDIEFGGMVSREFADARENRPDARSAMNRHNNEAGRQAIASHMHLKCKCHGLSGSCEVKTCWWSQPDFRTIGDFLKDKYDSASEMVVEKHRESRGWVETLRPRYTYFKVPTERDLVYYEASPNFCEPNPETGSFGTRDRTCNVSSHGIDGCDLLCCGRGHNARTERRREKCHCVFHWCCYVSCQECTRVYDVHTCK

With `FC(F)(F)Oc1ccccc1CSc1nnc(-c2ccccc2)o1` the AC50 [1] was > 52 µM (inactive).

In the case of `COc1ccccc1Cc1c(-c2ccc(C)cc2)nc2cc(C)c(Br)c(C)n12`, the EC50 [2] is reported as > 20 µM (inactive).

With `Cc1ccc(C)c(OCC(=O)Nc2nonc2NC(=O)COc2cc(C)ccc2C)c1` the AC50 [3] was 4.31 µM (active), the IC50 [4] was 45.4 µM (active) and the AC50 [5] was 6.79 µM (active). The AC50 [6] was 2.68 µM (active), the AC50 [7] was 25.4 µM (active) and the AC50 [8] was 1.4 µM (active).

In the case of `COC(=O)C1=CN(Cc2ccc(F)cc2)C=C(C(=O)OC)C1c1cc(OC)c(OC)c(OC)c1`, the IC50 [9] is reported as 1.65 µM (active).

With `Cc1cc(C)c2nc(N3C(=O)C(O)=C(C(=O)c4ccco4)C3c3cccc(O)c3)sc2c1` (stereo unspecified) the IC50 [10] was 32.4 µM (active) and the IC50 [11] was 81.8 µM (inactive).

For `CCN(c1ccccc1)S(=O)(=O)c1ccc(OC)c(NC(=O)C2CCC2)c1`, the AC50 [12] was 35.7 µM (active).

For `O=C(NO)c1ccc2ccccc2c1`, the IC50 [13] was 15.7 µM (inactive).

With `COc1ccccc1C(=O)Nc1cc(N2CCCCC2)ncn1` the IC50 [14] was > 21.8 µM (inactive).

With `CCOC(=O)c1c(N)n(CCN2CCCCC2)c2nc3ccccc3nc12` the EC50 [15] was > 2.58 µM (active) and the EC50 [16] was 3.62 µM (active).
